Test results from patent US6613756B2 (Wisconsin Alumni Research Foundation, priority 2000, dated 2003).
Counter-ions that a name gives are not always drawn.

How the values were obtained:
collagenase = conditions: cited from earlier work
[1] = system: DA rats with MOG-induced EAE; experiment: Low-dose MOG (10 μg rMOG/CFA) immunization paradigm of relapsing remitting EAE; assay type: in vivo, rat; conditions: for % Of Dorsal Column Demyelinated / % Of Mortality / Mean Cumulative Score / % Of Incidence: 10 μg rMOG/CFA
Procedure: Experiments were performed on 6-8 week old female DA rats obtained from Harlan-Sprague Dawley, Indianapolis, Ind. or Harlan-Winkelmann, Germany. During the observation period, rats were housed in a light- and temperature-controlled environment and were permitted free access to food and water. The recombinant extracellular immunogobulin domain of MOG was expressed in E. coli and purified as described previously (Raine, C. S., et al., Ann. Neurol. 46:144-160, 1999).
Rats were immunized sub-cutaneously (s.c.) at the base of the tail with either 10 μg MOG in complete Freund's adjuvant (CFA) or 100 μg MOG emulsified in incomplete Freund's adjuvant (IFA) (Difco, Detroit, Mich.) in a total volume of 100 μl. Animals were weighed and examined daily for clinical signs of EAE that was scored on the following scale: 0.5, partial loss of tail tone; 1, complete tail atony; 2, hind limb weakness; 3, hind limb paralysis; 4, moribund; 5, dead. […]
(§1) Matched unimmunized, naive groups were also included: N^pbs-PBS-treated animals (n=10), N^tr1-minocycline-treated from experimental day 10 (n=10), N^tr2-minocycline-treated from experimental day 13 (n=5), N^tr3 minocycline-treated from experimental day 13, with twice daily injections during the first two days followed by single injection throughout the remaining treatment period (n=5).
Animals were deeply anesthetized with pentobarbital and perfused transcardially with Ringer's followed by 4% paraformaldehyde. The brain and spinal cord were removed and prepared for paraffin and epon embedding or cryo-protected in 30% sucrose. Paraffin sections were used to assess the degree of inflammation (hematoxylin and eosin) and one-micron semithin sections were used to estimate the demyelination in the spinal cord (toluidine blue). Areas with inflammatory infiltrates or demyelinating lesions in the dorsal funiculus of spinal cord were scored using a CCD72 camera to collect digital images that were analyzed with the Microcomputer Imaging Device (MCID) software from Imaging Research Inc. (St. Catherines, Ontario). Measurements for cell infiltrates and demyelination were expressed as percent of the total white matter area of the dorsal funiculus. To determine the profile of inflammatory infiltrates within lesions 10 μm cryostat sections of thoracic-lumbar spinal cord were immunolabelled for MHC II (Harlan Sera-Lab), CR3, CD45 (Serotec), GFAP (Dako), CD3 (PharMingen) and MMP-2 (Oncogne Research Products) protein expression. Primary antibodies were detected using a biotinylated secondary antibodies and the avidin: biotin enzyme complex technique (Vector Laboratories). Areas with immunolabelling-defined inflammatory infiltrates were scored using a semi-quantitative scale: 0-no inflammatory infiltrates or lesions, 1-25%, 2-50%, 3-75%, and 4-100% of the dorsal funiculus.
Statistical analysis of clinical scores was performed by averaging them over all times of the treatment and subtracting the first 11 days after immunization when clinical score in all groups was 0. Statistical significance was established using a repeated measures analysis where clinical score between treatments was compared from day 12 to 42 building in an auto-correlation of the error term. ANOVA and Student's t-test were used to establish the difference between experimental groups in all other examined parameters. Statistically significant differences were presented as: * for P<0.05, ** for P<0.01, and *** for P<0.001.

naive DA rats = experiment: Minocycline treatment of naive, non-immunized animals; assay type: in vivo, rat
Excerpt: In the high-dose MOG immunization paradigm rats were separated into two groups: EAE^pbs-phosphate-buffered saline (PBS)-treated rats (n=5) from day 1 post-immunization and EAE^tr-minocycline-treated rats (n=6) from day 1 post-immunization.
as §1

[2] = system: MOG-specific T-cell response; experiment: MOG-specific T-cell response of draining lymph node cells from treated rats; assay type: cell-based, rat; conditions: high-dose MOG; minocycline day 1 to 10; 10 d.p.i.
Procedure: Draining lymph nodes and spleens were removed 10 days post-immunization (d.p.i.) and proliferation assays performed in flat-bottomed 96-well tissue culture plates in a total volume of 200 μl using either 5×10^5 lymph node or spleen cells (Raine, C. S., et al., supra, 1999). Antigen specific proliferation was assessed by the incorporation of ^3H-thymidine (10 μCi/well) during the final 18 hours of a 72 hour culture period using a Packard Matrix 96 Direct Beta counter.

[3] = system: DA rats with MOG-induced EAE; experiment: High-dose MOG (100 μg rMOG/IFA) immunization paradigm of EAE; assay type: in vivo, rat
Procedure: Statistical analysis of clinical scores was performed by averaging them over all times of the treatment and subtracting the first 11 days after immunization when clinical score in all groups was 0. Statistical significance was established using a repeated measures analysis where clinical score between treatments was compared from day 12 to 42 building in an auto-correlation of the error term. ANOVA and Student's t-test were used to establish the difference between experimental groups in all other examined parameters. […]

[4] = minocycline from day 10 (EAEtr1)
[5] = minocycline from day of onset (EAEtr2)
[6] = minocycline from day of onset, double-dose (EAEtr3)

| SMILES | anti-collagenase activity (collagenase) | % Of Dorsal Column Demyelinated [1, 4] [%] | % Of Mortality [1, 4] [%] | Mean Cumulative Score [1, 4] | % Of Incidence ([1]; minocycline from day 10 (EAEtr1), 42 days) [%] | % Of Dorsal Column Demyelinated [1, 5] [%] | % Of Incidence [1, 5] [%] | % Of Mortality [1, 5] [%] | Mean Cumulative Score [1, 5] | % Of Dorsal Column Demyelinated [1, 6] [%] | % Of Mortality [1, 6] [%] | Mean Cumulative Score [1, 6] | % Of Incidence ([1]; minocycline from day of onset, double-dose first two days (EAEtr3)) [%] | maximal clinical disease grade reached ([1]; twice daily for first two days from onset, then once daily (EAEtr3)) | adverse effects (naive DA rats) | antigen specific proliferative response of draining lymph node cells [2] | % Of Incidence ([3]; minocycline 45 mg/kg i.p. daily from day 1, terminated day 20) [%] | % Of Dorsal Column Demyelinated ([3]; minocycline from day 1) [%] | Mean Cumulative Score ([3]; minocycline from day 1, sum of daily scores of all animals / number of animals) | % Of Mortality ([3]; minocycline from day 1, terminated day 20) [%] |
| --- | --- | --- | --- | --- | --- | --- | --- | --- | --- | --- | --- | --- | --- | --- | --- | --- | --- | --- | --- | --- |
| CC1(O)c2cccc(O)c2C(=O)C2=C(O)C3(O)C(=O)C(C(N)=O)=C(O)CC3CC21 (stereo not drawn) [CMT-1, 4-dedimethylamino tetracycline] | persistent anti-collagenase activity | – | – | – | – | – | – | – | – | – | – | – | – | – | – | – | – | – | – | – |
| CN(C)c1ccc(O)c2c1C[C@H]1C[C@H]3[C@H](N(C)C)C(O)=C(C(N)=O)C(=O)[C@@]3(O)C(O)=C1C2=O [Minocycline, Minocycline hydrochloride] | – | 5.94 | 0 | 7.43 | 40 | 0.12 | 100 | 0 | 26.25 | 0.04 | 0 | 10.12 | 100 | ≤ 1 | not found to induce any adverse effects | no significant effect | 80 | 6.25 | 5.5 | 0 |
| NC(=O)C1=C(O)C[C@@H]2C[C@@H]3Cc4cccc(O)c4C(=O)C3=C(O)[C@]2(O)C1=O [CMT-3, 6-demethyl 6-deoxy 4-dedimethylamino tetracycline] | persistent anti-collagenase activity | – | – | – | – | – | – | – | – | – | – | – | – | – | – | – | – | – | – | – |
